# Reference: patent US8232269B2, “Amide compounds useful in therapy” (Pfizer Inc., priority 2008, dated 2012)
# pKi: −log10 of the molar value.
# Assays:
# Brca1/p53-deficient mice = details: treatment of Brca1/p53-deficient mice; cited from earlier work
# ovarian cancer patients = details: RU486 200 mg/day; ovarian cancer patients refractory to cisplatin and paclitaxel; cited from earlier work
# [1] = biological target: T1, Progesterone Receptor (PR) (Homo sapiens, UniProt P06401); assay: In vitro functional assay for progesterone receptor (PR) antagonists: inhibition of progesterone-induced alkaline phosphatase expression in T47D cells; format: cell-based; details: antagonist format, 5 nM progesterone, Ki calculated from IC50 with the Cheng-Prusoff equation
# T1 construct: endogenous in cells; host or cells: T47D human breast mammary carcinoma cells
# T1 sequence (P06401 1-933): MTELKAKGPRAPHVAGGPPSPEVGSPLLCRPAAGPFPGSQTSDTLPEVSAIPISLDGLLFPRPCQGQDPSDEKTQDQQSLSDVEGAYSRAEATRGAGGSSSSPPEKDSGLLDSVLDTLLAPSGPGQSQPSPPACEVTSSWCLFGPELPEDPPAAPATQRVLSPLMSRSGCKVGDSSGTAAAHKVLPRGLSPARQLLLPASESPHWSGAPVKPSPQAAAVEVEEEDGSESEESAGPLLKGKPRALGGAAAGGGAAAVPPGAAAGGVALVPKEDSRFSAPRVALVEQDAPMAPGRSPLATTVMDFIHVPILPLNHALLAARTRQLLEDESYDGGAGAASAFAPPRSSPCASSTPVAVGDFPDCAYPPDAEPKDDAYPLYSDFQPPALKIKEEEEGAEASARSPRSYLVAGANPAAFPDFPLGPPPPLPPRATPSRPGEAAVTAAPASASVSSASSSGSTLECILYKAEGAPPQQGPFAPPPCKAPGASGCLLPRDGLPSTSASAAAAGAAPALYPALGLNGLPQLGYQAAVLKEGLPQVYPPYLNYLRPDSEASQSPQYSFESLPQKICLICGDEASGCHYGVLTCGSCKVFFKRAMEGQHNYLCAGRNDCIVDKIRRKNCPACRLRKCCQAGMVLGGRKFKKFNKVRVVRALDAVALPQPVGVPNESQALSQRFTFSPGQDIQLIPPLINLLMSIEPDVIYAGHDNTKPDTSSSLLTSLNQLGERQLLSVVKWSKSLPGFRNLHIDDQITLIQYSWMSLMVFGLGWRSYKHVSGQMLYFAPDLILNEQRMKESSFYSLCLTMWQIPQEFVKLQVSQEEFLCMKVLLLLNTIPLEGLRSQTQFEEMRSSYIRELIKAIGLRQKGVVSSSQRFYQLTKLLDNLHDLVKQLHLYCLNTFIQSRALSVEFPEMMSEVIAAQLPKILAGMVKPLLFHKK
# Method in brief: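 Antagonist format: T47D cells (8750/well, phenol red-free DMEM + 5% CS-FCS) given half-log compound dilutions plus 5 nM progesterone (final), incubated overnight (≥16 h) at 37 °C. Alkaline phosphatase read by CSPD chemiluminescence after freeze-thaw lysis; 0.1 μM RU-486 final defines minimum.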
Structure (SMILES),pKi [1],other results
"CC#C[C@]1(O)CC[C@H]2[C@@H]3CCC4=CC(=O)CCC4=C3[C@@H](c3ccc(N(C)C)cc3)C[C@@]21C [RU486, mifepristone]",,effect on mammary tumorigenesis (Brca1/p53-deficient mice): prevented mammary tumorigenesis; patients with a clinical response (ovarian cancer patients): 26.5%
"CCNC(=O)c1c(CC)c(-c2ccc(C#N)cc2)nn1C(C)C [Example 116, 3-(4-Cyanophenyl)-N,4-diethyl-1-isopropyl-1H-pyrazole-5-carboxamide]",7.49,
Cc1cc(-c2nn(C(C)C)c(C(=O)NCC(C)(C)O)c2C#N)ccc1C#N [Example 126],7.99,
"CCc1c(-c2ccc(C#N)cc2)nn(C(C)CC)c1C(=O)NCC(=O)NC (single isomer, unassigned) [Example 109 Ent 1, 1-sec-Butyl-3-(4-cyanophenyl)-4-ethyl-N-[2-(methylamino)-2-oxoethyl]-1H-pyrazole-5-carboxamide]",7.00,
"CC(C)n1nc(-c2ccc(C#N)cc2)c(C2CC2)c1C(=O)NC1CCCOC1 (racemic) [Example 40, (+/−)-3-(4-Cyanophenyl)-4-cyclopropyl-1-isopropyl-N-(tetrahydro-2H-pyran-3-yl)-1H-pyrazole-5-carboxamide]",7.76,
"CC(C)n1nc(-c2ccc(C#N)cc2)c(C2CC2)c1C(=O)NC(C)(C)C [Example 60, N-tert-Butyl-3-(4-cyanophenyl)-4-cyclopropyl-1-isopropyl-1H-pyrazole-5-carboxamide]",7.38,
"CC(C)n1nc(-c2ccc(C#N)cc2)c(C2CC2)c1C(=O)NC1CNC(=O)C1 (racemic) [Example 45, (+/−)-3-(4-Cyanophenyl)-4-cyclopropyl-1-isopropyl-N-[(3R)-5-oxopyrrolidin-3-yl]-1H-pyrazole-5-carboxamide]",6.98,
Cc1cc(-c2nn(C(C)C)c(C(=O)NC3CC3)c2C#N)ccc1C#N [Example 121],8.30,
"CC(C)n1nc(-c2ccc(C#N)cc2)c(C2CC2)c1C(=O)NC[C@H]1CCCO1 [Example 53, 3-(4-Cyanophenyl)-4-cyclopropyl-1-isopropyl-N-[(2R)-tetrahydrofuran-2-ylmethyl]-1H-pyrazole-5-carboxamide]",8.13,
"Cc1cc(-c2nn(C(C)C)c(C(=O)NC[C@@H](C)O)c2C)ccc1C#N [Example 64, 3-(4-Cyano-3-methylphenyl)-N-[(2R)-2-hydroxypropyl]-1-isopropyl-4-methyl-1H-pyrazole-5-carboxamide]",7.96,
"CC(C)C(=O)N1CC[C@H](NC(=O)c2c(C3CC3)c(-c3ccc(C#N)cc3)nn2C(C)C)C1 [Example 14, 3-(4-Cyanophenyl)-4-cyclopropyl-N-[(3S)-1-isobutyrylpyrrolidin-3-yl]-1-isopropyl-1H-pyrazole-5-carboxamide]",6.52,
"CCNC(=O)c1c(C)c(-c2ccc(C#N)cc2)nn1C1CC1 [Example 83, 3-(4-Cyanophenyl)-1-cyclopropyl-N-ethyl-4-methyl-1H-pyrazole-5-carboxamide]",7.02,
"CCc1c(-c2ccc(C#N)cc2)nn(C(C)CC)c1C(=O)NCC(C)(C)O (racemic) [Example 106, 1-sec-Butyl-3-(4-cyanophenyl)-4-ethyl-N-(2-hydroxy-2-methylpropyl)-1H-pyrazole-5-carboxamide]",7.62,
"CCc1c(-c2ccc(C#N)cc2)nn(C(C)CC)c1C(=O)NC[C@H](C)O (stereo partly drawn) [Example 108, 1-sec-Butyl-3-(4-cyanophenyl)-4-ethyl-N-[(2S)-2-hydroxypropyl]-1H-pyrazole-5-carboxamide]",7.04,
"CNC(=O)CNC(=O)c1c(C2CC2)c(-c2ccc(C#N)cc2)nn1C(C)C [Example 25, 3-(4-Cyanophenyl)-4-cyclopropyl-1-isopropyl-N-[2-(methylamino)-2-oxoethyl]-1H-pyrazole-5-carboxamide]",7.61,
"CCNC(=O)c1c(C)c(-c2ccc(C#N)c(C)c2)nn1C(C)C [Example 65, 3-(4-Cyano-3-methylphenyl)-N-ethyl-1-isopropyl-4-methyl-1H-pyrazole-5-carboxamide]",8.45,
"CC(C)n1nc(-c2ccc(C#N)cc2)c(C2CC2)c1C(=O)NC[C@@H](C)O [Example 3, 3-(4-Cyano-phenyl)-4-cyclopropyl-N-[(2R)-2-hydroxypropyl]-1-isopropyl-1H-pyrazole-5-carboxamide]",7.86,

Structure (SMILES),pKi [1],other results
"CCc1c(-c2ccc(C#N)cc2)nn(C(C)CC)c1C(=O)NC (racemic) [Example 105, (+/−)-1-sec-Butyl-3-(4-cyanophenyl)-4-ethyl-N-methyl-1H-pyrazole-5-carboxamide]",7.85,
"Cc1cc(-c2nn(C(C)C)c(C(=O)NCC(C)(C)O)c2C)ccc1C#N [Example 68, 3-(4-Cyano-3-methylphenyl)-N-(2-hydroxy-2-methylpropyl)-1-isopropyl-4-methyl-1H-pyrazole-5-carboxamide]",8.20,
"CC(C)n1nc(-c2ccc(C#N)cc2)c(C2CC2)c1C(=O)NC1CCC1 [Example 50, 3-(4-Cyanophenyl)-N-cyclobutyl-4-cyclopropyl-1-isopropyl-1H-pyrazole-5-carboxamide]",8.44,
"Cc1c(-c2ccc(C#N)cc2)nn(C2CCOC2)c1C(=O)NCC(C)(C)O (racemic) [Example 80, 3-(4-Cyanophenyl)-N-(2-hydroxy-2-methylpropyl)-4-methyl-1-(tetrahydrofuran-3-yl)-1H-pyrazole-5-carboxamide]",6.86,
"CCC(=O)N1CC(NC(=O)c2c(C3CC3)c(-c3ccc(C#N)cc3)nn2C(C)C)C1 [Example 17, 3-(4-Cyanophenyl)-4-cyclopropyl-1-isopropyl-N-(1-propionylazetidin-3-yl)-1H-pyrazole-5-carboxamide]",7.37,
"CC(C)n1nc(-c2ccc(C#N)cc2)c(C2CC2)c1C(=O)NCC1CCCO1 (racemic) [Example 36, (+/−)-3-(4-Cyanophenyl)-4-cyclopropyl-1-isopropyl-N-(tetrahydrofuran-2-ylmethyl)-1H-pyrazole-5-carboxamide]",7.92,
"CC(C)n1nc(-c2ccc(C#N)cc2)c(C2CC2)c1C(=O)NCC(C)(C)O [Example 1, 3-(4-Cyano-phenyl)-4-cyclopropyl-N-(2-hydroxy-2-methylpropyl)-1-isopropyl-1H-pyrazole-5-carboxamide]",7.70,
"CCc1c(-c2ccc(C#N)cc2)nn(C(C)C)c1C(=O)NCC(C)(C)O [Example 118, 3-(4-Cyanophenyl)-4-ethyl-N-(2-hydroxy-2-methylpropyl)-1-isopropyl-1H-pyrazole-5-carboxamide]",7.26,
"CC(=O)N1CC(NC(=O)c2c(C3CC3)c(-c3ccc(C#N)cc3)nn2C(C)C)C1 [Example 19, N-(1-Acetylazetidin-3-yl)-3-(4-cyanophenyl)-4-cyclopropyl-1-isopropyl-1H-pyrazole-5-carboxamide]",7.29,
"CCc1c(-c2ccc(C#N)cc2)nn(C(C)CC)c1C(=O)NCC(C)(C)O (single isomer, unassigned) [Example 106 Ent 2, 1-sec-Butyl-3-(4-cyanophenyl)-4-ethyl-N-(2-hydroxy-2-methylpropyl)-1H-pyrazole-5-carboxamide]",7.42,
"CC(C)n1nc(-c2ccc(C#N)cc2)c(C2CC2)c1C(=O)N[C@H]1CCOC1=O [Example 24, 3-(4-Cyanophenyl)-4-cyclopropyl-1-isopropyl-N-[(3S)-2-oxotetrahydrofuran-3-yl]-1H-pyrazole-5-carboxamide]",7.71,
"CC(C)n1nc(-c2ccc(C#N)cc2)c(C2CC2)c1C(=O)NCCN [Example 28, N-(2-Aminoethyl)-3-(4-cyanophenyl)-4-cyclopropyl-1-isopropyl-1H-pyrazole-5-carboxamide]",6.77,
Cc1c(-c2ccc(C#N)cc2)nn(C2CCOC2)c1C(=O)NCC1CC1 (stereo not shown) [Example 127],7.95,
"CC(C)n1nc(-c2ccc(C#N)cc2)c(C2CC2)c1C(=O)NC[C@H](C)O [Example 2, 3-(4-Cyano-phenyl)-4-cyclopropyl-N-[(2S)-2-hydroxypropyl]-1-isopropyl-1H-pyrazole-5-carboxamide]",8.03,
"Cc1cc(-c2nn(C(C)C)c(C(=O)NC3CC3)c2C)ccc1C#N [Example 67, 3-(4-Cyano-3-methylphenyl)-N-cyclopropyl-1-isopropyl-4-methyl-1H-pyrazole-5-carboxamide]",8.36,
"CC(Cn1cccn1)NC(=O)c1c(C2CC2)c(-c2ccc(C#N)cc2)nn1C(C)C (racemic) [Example 44, (+/−)-3-(4-Cyanophenyl)-4-cyclopropyl-1-isopropyl-N-[1-methyl-2-(1H-pyrazol-1-yl)ethyl]-1H-pyrazole-5-carboxamide]",7.39,
